{
  "source": "patent US12010993B2",
  "about": "“Granular agricultural compositions” (OMS Investments, Inc., priority 2020, dated 2024)",
  "key": {"[1]": {"system": "Kentucky bluegrass", "test": "Turfgrass greening vs commercial greening products, Kentucky bluegrass, Table 32", "format": "in vivo", "description": "(§1) To further explain the positive greening response of Formulation 2, two additional trials were conducted on Kentucky bluegrass and perennial ryegrass. The additional trials compared Formulations 2 and 5 with other commercial greening products at equivalent nitrogen rates to better understand the speed of the greening response as well as the darkness of the greening response. Application rates are described in Table 31. The commercial greening products include Green Max™ Lawn Food and Turf Builder® Lawn Food available from the Scotts Company LLC (Marysville, OH). Urea was also evaluated.\n(§2) For each trial, preceding application, mowing was withheld for 24 to 48 hours to ensure sufficient leaf area was present for formulation absorption. The experimental unit for turfgrass color response testing was a 3′×3′ plot. The research area for turfgrass color response contained minimal weed pressure so that product impact could be accurately and consistently assessed. Plots were separated on each side by a 2 ft. untreated buffer strip.\n(§3) Formulations 2 and 5 were applied early in the morning to dew-laden turf. Green Max™ Lawn Food, Turf Builder® Lawn Food, and urea were all applied to dry turf once the morning dew had dissipated. All treatments were applied using a shaker jar and spreader box to ensure even particle coverage over the plot. Treatments applied to dry turf were watered in immediately after application with 0.18″ of water and wet-foliage applied treatments remained on the leaf surface for 24 hours prior to being watered in with 0.18″ of water. This trial design allowed for comparative evaluation of the response of turf to foliar nitrogen and iron compared to foliar nitrogen; soil applied nitrogen; and soil applied nitrogen and iron at two different rates of iron application. Turfgrass color was rated visually using the National Turfgrass Evaluation Program color rating scale (1-9). Treatments were rated for color 3 and 6 hours after application, and then 1, 3, 7, 14, and 20 days after application. Table 32 depicts testing of Kentucky bluegrass while Table 33 depicts testing of Perennial ryegrass."}, "[2]": {"system": "perennial ryegrass", "test": "Turfgrass greening vs commercial greening products, perennial ryegrass, Table 33", "format": "in vivo", "description": "as §1, §2, §3"}},
  "data": [
    {"smiles": "NC(N)=O", "note": "[Urea]", "values": [
      {"measurement": "Turf Color (1-9)", "setting": "[1]; 1 D after initial application", "value": 3.88},
      {"measurement": "Turf Color (1-9)", "setting": "[1]; 3 D after initial application", "value": 4.00},
      {"measurement": "Turf Color (1-9)", "setting": "[1]; 7 D after initial application", "value": 4.63},
      {"measurement": "Turf Color (1-9)", "setting": "[1]; 14 D after initial application", "value": 5.25},
      {"measurement": "Turf Color (1-9)", "setting": "[1]; 20 D after initial application", "value": 6.25},
      {"measurement": "Turf Color (1-9)", "setting": "[1]; 3 hr after initial application", "value": 3.75},
      {"measurement": "Turf Color (1-9)", "setting": "[1]; 6 hr after initial application", "value": 3.75},
      {"measurement": "Turf Color (1-9)", "setting": "[2]; 1 D after initial application", "value": 3.50},
      {"measurement": "Turf Color (1-9)", "setting": "[2]; 3 D after initial application", "value": 3.13},
      {"measurement": "Turf Color (1-9)", "setting": "[2]; 7 D after initial application", "value": 4.63},
      {"measurement": "Turf Color (1-9)", "setting": "[2]; 14 D after initial application", "value": 4.88},
      {"measurement": "Turf Color (1-9)", "setting": "[2]; 20 D after initial application", "value": 6.13},
      {"measurement": "Turf Color (1-9)", "setting": "[2]; 3 hr after initial application", "value": 3.13},
      {"measurement": "Turf Color (1-9)", "setting": "[2]; 6 hr after initial application", "value": 3.50}
    ]}
  ]
}
